Assays:
[1] = test system: EL-4 T cell thymic lymphoma; test: EL-4 tumour challenge in mice fed experimental diets (tumour growth, rejection, response to paclitaxel); type: in vivo, C57BL/6 mice; settings: Example 1; control diet; paclitaxel 30 mg/Kg i.p. at tumours ~0.6 cm
EL-4 target cells = test: Anti-tumour cytolytic activity of splenocytes (CTL assay); type: cell-based, mouse; settings: Example 4; high dose vitamin D (45.2 mg/Kg) by itself or Fe-saturated Lf
Experimental: Splenocytes were harvested 28 days following tumour cell injection, as specified. They were incubated at 37° C. with EL-4 target cells in graded E:T ratios in 96-well round-bottom plates. After a 4-hour incubation, 50 μl of supernatant was collected, and lysis was measured using the Cyto Tox 96 Assay Kit (Promega, Madison, Wis., USA). Background controls for non-specific target and effector cell lysis were included. After background subtraction, percentage of cell lysis was calculated using the formula: 100×(experimental-spontaneous effector-spontaneous target/maximum target-spontaneous target).

[2] = daily for several years; cited from earlier work

Question: For `CC(=O)O[C@H]1C(=O)[C@@]2(C)[C@H]([C@H](OC(=O)c3ccccc3)[C@]3(O)C[C@H](OC(=O)[C@H](O)[C@@H](NC(=O)c4ccccc4)c4ccccc4)C(C)=C1C3(C)C)[C@]1(OC(C)=O)CO[C@@H]1C[C@@H]2O` [paclitaxel, reference compound], which “tumour response to paclitaxel” value [1] is on record?
Answer: completely resistant

Question: With `C=C1CC[C@H](O)C/C1=C/C=C1\CCC[C@]2(C)[C@@H]([C@H](C)CCCC(C)C)CC[C@@H]12` [vitamin D, cholecalciferol, reference compound] as the compound, how does the “increase in anti-tumour cytolytic activity of splenocytes, agent by itself” value (EL-4 target cells) read?
Answer: 1.9 fold

Question: What about the “daily ingestion after which most cases of toxicity were reported” value [2] of the same compound?
Answer: greater than 50,000 IU

— patent US20100092497A1, “METHODS OF IMMUNE OR HAEMATOLOGICAL ENHANCEMENT, INHIBITING TUMOUR FORMATION OR GROWTH, AND TREATING OR PREVENTING CANCER” (priority 2006, published 2010)
